From the kinase profiling compilation of Christmann-Franck et al. (2016)

Key:
Experiment in all cases: radiometric filter-binding kinase assay, Kinase HotSpot
Settings in all cases: compound 0.5 µM; ATP 10 µM
[1] = target: ABL2 (human) (UniProt P42684)
[2] = target: AKT3 (human) (UniProt Q9Y243)
[3] = target: ALK (human) (UniProt Q9UM73)
[4] = target: CAMK2A (human) (UniProt Q9UQM7)
[5] = target: CDK5 CDK5R1 p25 (human) (UniProt Q00535+Q15078)
[6] = target: CDK6 CCND3 (human) (UniProt P30281+Q00534)
[7] = target: CDK9 CCNT1 (human) (UniProt P50750+O60563)
[8] = target: CHEK2 (human) (UniProt O96017)
[9] = target: CSNK1A1 (human) (UniProt P48729)
[10] = target: DAPK2 (human) (UniProt Q9UIK4)
[11] = target: EPHA7 (human) (UniProt Q15375)
[12] = target: EPHB2 (human) (UniProt P29323)
[13] = target: ERBB2 (human) (UniProt P04626)
[14] = target: FGR (human) (UniProt P09769)
[15] = target: GSK3A (human) (UniProt P49840)
[16] = target: HCK (human) (UniProt P08631)
[17] = target: HIPK4 (human) (UniProt Q8NE63)
[18] = target: MAP3K14 (human) (UniProt Q99558)
[19] = target: MAP3K2 (human) (UniProt Q9Y2U5)
[20] = target: MAP3K7 TAB1 (human) (UniProt O43318+Q15750)
[21] = target: MAP3K8 (human) (UniProt P41279)
[22] = target: MAPK10 (human) (UniProt P53779)
[23] = target: MAPK9 (human) (UniProt P45984)
[24] = target: MARK3 (human) (UniProt P27448)
[25] = target: MKNK2 (human) (UniProt Q9HBH9)
[26] = target: MLTK (human) (UniProt Q9NYL2)
[27] = target: MYLK2 (human) (UniProt Q9H1R3)
[28] = target: NTRK1 (human) (UniProt P04629)
[29] = target: NUAK2 (human) (UniProt Q9H093)
[30] = target: PKN2 (human) (UniProt Q16513)
[31] = target: PLK3 (human) (UniProt Q9H4B4)
[32] = target: PRKACA (human) (UniProt P17612)
[33] = target: PRKCG (human) (UniProt P05129)
[34] = target: PTK2 (human) (UniProt Q05397)
[35] = target: RPS6KA1 KD1 KD2 (human) (UniProt Q15418)
[36] = target: RPS6KA2 KD1 KD2 (human) (UniProt Q15349)
[37] = target: RPS6KA4 KD2 (human) (UniProt O75676)
[38] = target: SRPK3 (human) (UniProt Q9UPE1)
[39] = target: TEK (human) (UniProt Q02763)
[40] = target: TTK (human) (UniProt P33981)
[41] = target: ZAP70 (human) (UniProt P43403)

MLTK (human), sequence (Q9NYL2 whole entry, looked up): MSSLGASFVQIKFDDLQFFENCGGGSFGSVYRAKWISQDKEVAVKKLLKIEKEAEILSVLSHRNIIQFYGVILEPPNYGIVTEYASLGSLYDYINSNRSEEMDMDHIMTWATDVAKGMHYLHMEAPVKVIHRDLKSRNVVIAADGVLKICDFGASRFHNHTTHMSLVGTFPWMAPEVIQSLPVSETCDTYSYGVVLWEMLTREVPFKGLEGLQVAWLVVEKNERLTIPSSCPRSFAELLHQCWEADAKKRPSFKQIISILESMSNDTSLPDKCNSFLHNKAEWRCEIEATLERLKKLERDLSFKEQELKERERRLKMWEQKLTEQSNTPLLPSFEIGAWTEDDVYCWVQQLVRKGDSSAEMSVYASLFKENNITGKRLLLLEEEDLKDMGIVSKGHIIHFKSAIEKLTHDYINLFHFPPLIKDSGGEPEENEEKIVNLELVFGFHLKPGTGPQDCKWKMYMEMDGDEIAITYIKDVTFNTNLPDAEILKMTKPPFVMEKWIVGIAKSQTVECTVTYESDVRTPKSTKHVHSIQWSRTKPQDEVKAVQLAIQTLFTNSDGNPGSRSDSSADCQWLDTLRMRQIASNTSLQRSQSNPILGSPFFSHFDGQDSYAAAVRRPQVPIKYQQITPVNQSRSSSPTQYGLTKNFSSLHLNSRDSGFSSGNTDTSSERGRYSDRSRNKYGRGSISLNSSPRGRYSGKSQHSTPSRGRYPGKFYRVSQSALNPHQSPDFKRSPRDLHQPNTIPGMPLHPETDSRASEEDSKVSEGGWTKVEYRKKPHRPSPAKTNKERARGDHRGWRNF
HIPK4 (human), sequence (Q8NE63 whole entry, looked up): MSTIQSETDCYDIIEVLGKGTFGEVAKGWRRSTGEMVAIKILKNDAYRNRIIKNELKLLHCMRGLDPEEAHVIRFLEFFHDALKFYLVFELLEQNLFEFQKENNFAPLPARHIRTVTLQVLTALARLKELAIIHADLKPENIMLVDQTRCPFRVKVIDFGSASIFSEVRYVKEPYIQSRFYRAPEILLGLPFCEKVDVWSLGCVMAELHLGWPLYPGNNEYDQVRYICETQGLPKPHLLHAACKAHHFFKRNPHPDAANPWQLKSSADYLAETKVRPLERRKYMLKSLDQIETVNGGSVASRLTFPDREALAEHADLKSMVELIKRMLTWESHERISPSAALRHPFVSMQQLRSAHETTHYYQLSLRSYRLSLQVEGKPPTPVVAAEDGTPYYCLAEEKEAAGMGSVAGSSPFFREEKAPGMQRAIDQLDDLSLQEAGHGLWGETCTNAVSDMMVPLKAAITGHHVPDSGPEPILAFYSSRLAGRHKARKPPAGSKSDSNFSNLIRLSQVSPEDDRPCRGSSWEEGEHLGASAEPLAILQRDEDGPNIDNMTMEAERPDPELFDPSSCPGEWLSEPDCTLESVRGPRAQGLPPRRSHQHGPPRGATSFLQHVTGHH
RPS6KA4 KD2 (human), sequence (O75676 whole entry, looked up): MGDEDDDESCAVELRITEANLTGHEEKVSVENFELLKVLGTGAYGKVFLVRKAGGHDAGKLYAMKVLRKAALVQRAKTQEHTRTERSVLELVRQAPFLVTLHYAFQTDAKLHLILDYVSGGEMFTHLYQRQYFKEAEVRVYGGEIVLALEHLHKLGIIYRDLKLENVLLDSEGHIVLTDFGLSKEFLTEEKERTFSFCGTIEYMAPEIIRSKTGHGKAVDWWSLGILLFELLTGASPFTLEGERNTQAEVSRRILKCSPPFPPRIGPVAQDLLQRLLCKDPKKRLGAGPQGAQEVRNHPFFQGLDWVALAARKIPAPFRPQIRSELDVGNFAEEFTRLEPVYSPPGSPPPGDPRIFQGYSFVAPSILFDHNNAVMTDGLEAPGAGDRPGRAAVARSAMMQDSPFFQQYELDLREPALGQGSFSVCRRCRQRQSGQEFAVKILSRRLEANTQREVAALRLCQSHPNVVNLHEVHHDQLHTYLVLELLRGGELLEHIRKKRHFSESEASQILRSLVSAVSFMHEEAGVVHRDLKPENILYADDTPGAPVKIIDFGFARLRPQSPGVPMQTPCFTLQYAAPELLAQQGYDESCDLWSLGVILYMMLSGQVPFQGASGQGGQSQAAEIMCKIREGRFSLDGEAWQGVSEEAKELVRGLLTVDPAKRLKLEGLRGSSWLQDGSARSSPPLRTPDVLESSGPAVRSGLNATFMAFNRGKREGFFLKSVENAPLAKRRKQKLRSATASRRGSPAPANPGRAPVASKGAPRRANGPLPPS
MARK3 (human), sequence (P27448 whole entry, looked up): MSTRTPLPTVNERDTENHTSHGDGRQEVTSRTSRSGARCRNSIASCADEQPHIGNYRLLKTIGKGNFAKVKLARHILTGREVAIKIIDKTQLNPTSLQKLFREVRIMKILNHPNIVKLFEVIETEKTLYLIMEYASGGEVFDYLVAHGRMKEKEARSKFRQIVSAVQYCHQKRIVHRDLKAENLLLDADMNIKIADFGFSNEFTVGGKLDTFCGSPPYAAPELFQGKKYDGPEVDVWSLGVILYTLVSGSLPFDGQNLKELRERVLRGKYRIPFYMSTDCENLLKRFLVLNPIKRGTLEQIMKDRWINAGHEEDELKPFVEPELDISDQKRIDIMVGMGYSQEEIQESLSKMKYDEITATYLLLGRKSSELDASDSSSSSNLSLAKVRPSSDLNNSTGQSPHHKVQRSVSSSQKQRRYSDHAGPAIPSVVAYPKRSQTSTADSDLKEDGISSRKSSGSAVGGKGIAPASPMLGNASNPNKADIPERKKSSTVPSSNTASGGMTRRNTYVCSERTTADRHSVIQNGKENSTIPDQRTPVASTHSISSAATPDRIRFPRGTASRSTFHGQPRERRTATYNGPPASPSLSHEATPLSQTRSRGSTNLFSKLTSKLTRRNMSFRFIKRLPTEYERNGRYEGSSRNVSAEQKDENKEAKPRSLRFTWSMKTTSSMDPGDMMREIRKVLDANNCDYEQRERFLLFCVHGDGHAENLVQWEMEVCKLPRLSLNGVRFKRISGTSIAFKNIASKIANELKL
NUAK2 (human), sequence (Q9H093 whole entry, looked up): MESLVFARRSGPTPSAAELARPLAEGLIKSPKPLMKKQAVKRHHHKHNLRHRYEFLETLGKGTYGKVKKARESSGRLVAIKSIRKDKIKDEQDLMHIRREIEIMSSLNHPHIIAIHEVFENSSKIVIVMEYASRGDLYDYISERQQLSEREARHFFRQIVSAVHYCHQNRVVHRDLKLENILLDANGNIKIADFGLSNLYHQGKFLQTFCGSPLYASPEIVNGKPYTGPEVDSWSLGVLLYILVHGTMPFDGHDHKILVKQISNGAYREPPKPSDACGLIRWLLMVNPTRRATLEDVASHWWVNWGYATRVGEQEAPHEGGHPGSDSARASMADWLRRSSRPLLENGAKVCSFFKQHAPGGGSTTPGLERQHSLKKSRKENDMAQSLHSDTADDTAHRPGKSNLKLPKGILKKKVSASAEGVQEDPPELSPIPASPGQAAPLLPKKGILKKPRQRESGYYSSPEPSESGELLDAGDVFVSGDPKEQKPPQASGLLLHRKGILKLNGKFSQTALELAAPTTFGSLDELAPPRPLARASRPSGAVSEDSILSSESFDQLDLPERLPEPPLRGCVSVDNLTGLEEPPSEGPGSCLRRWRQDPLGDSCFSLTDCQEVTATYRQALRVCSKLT
MAP3K2 (human), sequence (Q9Y2U5 whole entry, looked up): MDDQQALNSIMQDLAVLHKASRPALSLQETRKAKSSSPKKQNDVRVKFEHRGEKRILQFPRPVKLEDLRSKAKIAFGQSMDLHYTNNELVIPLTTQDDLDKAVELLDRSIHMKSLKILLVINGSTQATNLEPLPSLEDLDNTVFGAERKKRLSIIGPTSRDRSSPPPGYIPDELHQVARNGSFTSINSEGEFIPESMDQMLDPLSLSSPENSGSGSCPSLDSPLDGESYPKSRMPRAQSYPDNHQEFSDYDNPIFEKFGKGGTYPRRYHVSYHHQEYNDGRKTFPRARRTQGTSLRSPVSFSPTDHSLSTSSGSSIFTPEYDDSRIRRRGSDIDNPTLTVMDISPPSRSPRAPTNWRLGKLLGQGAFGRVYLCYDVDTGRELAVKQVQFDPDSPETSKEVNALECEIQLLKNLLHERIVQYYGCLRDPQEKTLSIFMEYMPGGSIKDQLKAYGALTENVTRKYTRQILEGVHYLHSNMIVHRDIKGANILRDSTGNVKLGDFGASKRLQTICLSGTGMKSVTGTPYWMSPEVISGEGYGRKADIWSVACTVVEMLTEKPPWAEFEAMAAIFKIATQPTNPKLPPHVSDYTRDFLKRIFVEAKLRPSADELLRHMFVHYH
MAPK10 (human), sequence (P53779 whole entry, looked up): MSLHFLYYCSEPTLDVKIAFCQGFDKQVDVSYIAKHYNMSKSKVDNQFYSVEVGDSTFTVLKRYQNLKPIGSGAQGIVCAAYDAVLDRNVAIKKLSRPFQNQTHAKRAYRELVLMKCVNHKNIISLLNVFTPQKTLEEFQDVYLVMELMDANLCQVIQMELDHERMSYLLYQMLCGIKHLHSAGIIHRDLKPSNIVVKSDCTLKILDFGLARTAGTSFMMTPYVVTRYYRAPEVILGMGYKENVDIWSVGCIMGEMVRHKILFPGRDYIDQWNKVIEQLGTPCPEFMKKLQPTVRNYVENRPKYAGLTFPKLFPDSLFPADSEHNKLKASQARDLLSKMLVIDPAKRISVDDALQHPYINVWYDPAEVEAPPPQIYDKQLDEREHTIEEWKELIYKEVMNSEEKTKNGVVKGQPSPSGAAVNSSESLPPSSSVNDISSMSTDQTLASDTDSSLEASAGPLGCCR
DAPK2 (human), sequence (Q9UIK4 whole entry, looked up): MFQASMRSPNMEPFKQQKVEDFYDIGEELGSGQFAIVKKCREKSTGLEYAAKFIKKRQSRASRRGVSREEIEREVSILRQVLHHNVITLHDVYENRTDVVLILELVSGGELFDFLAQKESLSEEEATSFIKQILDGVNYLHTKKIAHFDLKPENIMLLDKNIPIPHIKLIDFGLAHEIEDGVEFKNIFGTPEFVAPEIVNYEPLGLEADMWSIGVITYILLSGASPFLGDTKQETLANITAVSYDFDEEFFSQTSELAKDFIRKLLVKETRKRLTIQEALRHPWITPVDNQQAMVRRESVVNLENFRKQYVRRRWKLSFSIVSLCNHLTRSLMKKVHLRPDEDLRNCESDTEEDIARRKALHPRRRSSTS

Compound: Cn1cnc2cc3c(Nc4cccc(Br)c4)ncnc3cc21
- residual activity [1]: 37%
- residual activity [2]: 89.5%
- residual activity [3]: 92.4%
- residual activity [4]: 102%
- residual activity [5]: 88%
- residual activity [6]: 107%
- residual activity [7]: 88.5%
- residual activity [8]: 101%
- residual activity [9]: 102%
- residual activity [10]: 92.5%
- residual activity [11]: 72%
- residual activity [12]: 76.2%
- residual activity [13]: 47.4%
- residual activity [14]: 55.8%
- residual activity [15]: 100%
- residual activity [16]: 70.4%
- residual activity [17]: 88.6%
- residual activity [18]: 90.6%
- residual activity [19]: 97.6%
- residual activity [20]: 98.6%
- residual activity [21]: 90.1%
- residual activity [22]: 104%
- residual activity [23]: 92.3%
- residual activity [24]: 104%
- residual activity [25]: 32.2%
- residual activity [26]: 93.3%
- residual activity [27]: 87.6%
- residual activity [28]: 90.8%
- residual activity [29]: 102%
- residual activity [30]: 85.7%
- residual activity [31]: 99.8%
- residual activity [32]: 105%
- residual activity [33]: 93.9%
- residual activity [34]: 108%
- residual activity [35]: 103%
- residual activity [36]: 79.4%
- residual activity [37]: 96.3%
- residual activity [38]: 94.9%
- residual activity [39]: 98.9%
- residual activity [40]: 95.7%
- residual activity [41]: 110%

Compound: Cc1nc2cc3nc(-c4cccs4)cnc3cc2n1C
- residual activity [1]: 100%
- residual activity [2]: 112%
- residual activity [3]: 99.8%
- residual activity [4]: 105%
- residual activity [5]: 99.3%
- residual activity [6]: 87.8%
- residual activity [7]: 88.3%
- residual activity [8]: 94.6%
- residual activity [9]: 96.7%
- residual activity [10]: 94.1%
- residual activity [11]: 92.5%
- residual activity [12]: 101%
- residual activity [13]: 92%
- residual activity [14]: 89.3%
- residual activity [15]: 94.1%
- residual activity [16]: 98%
- residual activity [17]: 103%
- residual activity [18]: 97.4%
- residual activity [19]: 90.2%
- residual activity [20]: 92.5%
- residual activity [21]: 99%
- residual activity [22]: 96.3%
- residual activity [23]: 74.7%
- residual activity [24]: 105%
- residual activity [25]: 108%
- residual activity [26]: 89.1%
- residual activity [27]: 74.5%
- residual activity [28]: 113%
- residual activity [29]: 96.7%
- residual activity [30]: 71%
- residual activity [31]: 95.6%
- residual activity [32]: 100%
- residual activity [33]: 94.9%
- residual activity [34]: 117%
- residual activity [35]: 99.4%
- residual activity [36]: 95%
- residual activity [37]: 88.4%
- residual activity [38]: 96.6%
- residual activity [39]: 96.6%
- residual activity [40]: 92.6%
- residual activity [41]: 93.3%

Compound: O=C(CCCc1ccc(-c2ccccc2F)cc1)Nc1ccc(O)cc1
- residual activity [1]: 95.3%
- residual activity [2]: 111%
- residual activity [3]: 97%
- residual activity [4]: 116%
- residual activity [5]: 94.6%
- residual activity [6]: 103%
- residual activity [7]: 103%
- residual activity [8]: 101%
- residual activity [9]: 101%
- residual activity [10]: 106%
- residual activity [11]: 104%
- residual activity [12]: 98.5%
- residual activity [13]: 101%
- residual activity [14]: 96%
- residual activity [15]: 98.6%
- residual activity [16]: 93.5%
- residual activity [17]: 105%
- residual activity [18]: 99.2%
- residual activity [19]: 89.1%
- residual activity [20]: 105%
- residual activity [21]: 101%
- residual activity [22]: 100%
- residual activity [23]: 106%
- residual activity [24]: 101%
- residual activity [25]: 106%
- residual activity [26]: 97.8%
- residual activity [27]: 97.8%
- residual activity [28]: 103%
- residual activity [29]: 92.9%
- residual activity [30]: 89.8%
- residual activity [31]: 95%
- residual activity [32]: 99.5%
- residual activity [33]: 98%
- residual activity [34]: 102%
- residual activity [35]: 102%
- residual activity [36]: 101%
- residual activity [37]: 103%
- residual activity [38]: 93.7%
- residual activity [39]: 101%
- residual activity [40]: 89.5%
- residual activity [41]: 99.7%

Compound: O=C(Nc1cccc(Nc2cc(Nc3cccc(C(F)(F)F)c3)ncn2)c1)C1CC1
- residual activity [1]: 100%
- residual activity [2]: 99.4%
- residual activity [3]: 112%
- residual activity [4]: 104%
- residual activity [5]: 99.5%
- residual activity [6]: 102%
- residual activity [7]: 97.2%
- residual activity [8]: 99.5%
- residual activity [9]: 102%
- residual activity [10]: 99%
- residual activity [11]: 101%
- residual activity [12]: 88.6%
- residual activity [13]: 82.5%
- residual activity [14]: 96.4%
- residual activity [15]: 101%
- residual activity [16]: 99%
- residual activity [17]: 101%
- residual activity [18]: 77.9%
- residual activity [19]: 91.8%
- residual activity [20]: 99.3%
- residual activity [21]: 98.4%
- residual activity [22]: 83.4%
- residual activity [23]: 98.2%
- residual activity [24]: 105%
- residual activity [25]: 83.8%
- residual activity [26]: 97.1%
- residual activity [27]: 98.9%
- residual activity [28]: 99.6%
- residual activity [29]: 103%
- residual activity [30]: 95.9%
- residual activity [31]: 99.1%
- residual activity [32]: 102%
- residual activity [33]: 102%
- residual activity [34]: 105%
- residual activity [35]: 95.1%
- residual activity [36]: 102%
- residual activity [37]: 100%
- residual activity [38]: 103%
- residual activity [39]: 101%
- residual activity [40]: 98.7%
- residual activity [41]: 93%

Compound: O=C1Nc2ccccc2/C1=C1\Nc2ccccc2\C1=N/O
- residual activity [1]: 60.3%
- residual activity [2]: 98.8%
- residual activity [3]: 76.5%
- residual activity [4]: 50.2%
- residual activity [5]: 28.7%
- residual activity [6]: 26.1%
- residual activity [7]: 75.2%
- residual activity [8]: 32.3%
- residual activity [9]: 48.2%
- residual activity [10]: 110%
- residual activity [11]: 89.3%
- residual activity [12]: 83.3%
- residual activity [13]: 97.9%
- residual activity [14]: 35.7%
- residual activity [15]: 16.5%
- residual activity [16]: 60.2%
- residual activity [17]: 102%
- residual activity [18]: 88.7%
- residual activity [19]: 94.6%
- residual activity [21]: 106%
- residual activity [22]: 96.4%
- residual activity [23]: 65.6%
- residual activity [24]: 85.8%
- residual activity [25]: 82.1%
- residual activity [26]: 89.6%
- residual activity [27]: 41.1%
- residual activity [28]: 12.4%
- residual activity [29]: 72.5%
- residual activity [30]: 97.8%
- residual activity [31]: 93%
- residual activity [32]: 107%
- residual activity [33]: 96.7%
- residual activity [34]: 65.8%
- residual activity [35]: 39.6%
- residual activity [36]: 42.6%
- residual activity [37]: 58.7%
- residual activity [38]: 97.5%
- residual activity [39]: 98.7%
- residual activity [40]: 68%
- residual activity [41]: 95.6%
